This note sets out measurements from patent publication US8193225B2, “Isoxazole amides, derivatives and methods of chemical induction of neurogenesis” (priority 2006, dated 2012).

The subject of experiment [1] is neuroD-luciferase. The experiment can be described thus: neuroD-luciferase reporter gene assay in HCN cells. In kind it is cell-based, rat. Conditions: HCN cells.
The subject of experiment [2] is gluR2-luc. The experiment can be described thus: gluR2-luciferase reporter gene assay in HCN cells. In kind it is cell-based, rat.
Experiment [3] deals with MEF2 reporter gene (3XMRE-luc). The experiment can be described thus: MEF2 reporter gene (3XMRE-luc) assay in HCN cells. The note with it: HCN cells/NPCs, versus vehicle. In kind it is cell-based, rat. Background: Reporter assays use an easily measured gene product as a stand-in for the process of interest.
Experiment [4] concerns HCN cells. In words: glial (astrocyte, oligodendrocyte) differentiation of HCN cells/NPCs. In kind it is cell-based, rat. Conditions: 4 d cultures.
Experiment [5] relates to HDAC5. In words: protein blotting of phospho-HDAC5, HDAC4 and phospho-CaMKII in HCN cells. In kind it is cell-based, rat. The note with it: Isx/Isx-9-treated HCNs, 1-2 d.
For experiment [6], the system named is P19CL6 cells. In words: neuronal differentiation of P19CL6 cells. In kind it is cell-based, mouse. The note with it: 4 d cultures. As for the experimental part: Neural stem cell culture, in vitro differentiation, and CaMK inhibitor studies. The hippocampal neural stem/progenitor (NSC) line used in this study (HCN cells) were originally isolated from adult (8-10 wks old) female Fisher 344 rats and have been characterized previously (Gage et al., 1995; Palmer et al., 1997). HCN cells were cultured in DMEM:F12 (Omega Scientific) with N2 supplement (Invitrogen) and basic fibroblast growth factor (20 ng/ml FGF-2) (PeproTech). The mouse whole brain neural stem/progenitors (MWB) were derived from adult (8-10 wks old) C57BL/6 mice that have been characterized previously (Ray and Gage, 2006). The P19CL6 cells is a sub-line of P19EC cells, originally generated by the late Dr. Habara-Ohkubo (Habara-Ohkubo, 1996), were grown in MEM-α (Invitrogen) containing 10% fetal bovine serum (Omega). HCN cells or MWB neural progenitors were trypsinized and plated into N2 medium (Invitrogen) containing FGF-2 (HCN cells) or FGF-2/EGF/heparin (MWB) overnight, and switched to fresh N2 medium without FGF-2 and Isx-9 (20 μM for HCN cells and 5 μM for MWB) was added for 4 d. To test if Isx-9 could block competing astrocyte or oligodendrocyte differentiation, standard gliogenic conditions were used as described previously (Hsieh et al., 2004). […]

The test system of experiment [7] is NeuroD-luciferase. The experiment can be described thus: NeuroD-luciferase reporter in BTSCs. In kind it is cell-based, human. Conditions: after 24 hours, compared to vehicle. As for the experimental part: (§1) CD133+ glioblastoma brain tumor stem cells (BTSCs) from an explanted human tumor specimen were treated with 20 μM Isx-9 (FIG. 9C) or vol/vol DMSO (vehicle) control (FIG. 9B).

For experiment [8], the system named is NMDA receptor 1-(NR1) luciferase. In words: NMDA receptor 1 (NR1)-luciferase reporter in BTSCs. Conditions: after 24 hours, compared to vehicle. In kind it is cell-based, human. Here is the method: as §1
The test system of experiment [9] is human CD133(+) brain tumor stem cells (BTSCs). The experiment can be described thus: RT-PCR and protein blotting of gene expression in BTSCs. In kind it is cell-based. From the text:
FIGS. 9A-H—Isoxazoles specifically target the CD133(+) glioblastoma cancer stem cell to adopt a neuronal fate program. […] (FIG. 9B) BTSCs cultured with DMSO (vehicle) (1% vol./vol.). (FIG. 9D) Isx-9-treated BTSCs stained with neuronal markers Tuj1 (red) and Map2ab (green), Dapi-stained nuclei is blue. Scale bar=25 μm. […] (FIGS. 9G and 9H) RT-PCR and protein blotting analysis of gene expression in Isx-9-treated BTSCs. […] GAPDH is used as a normalization control.
This activity remained following addition of FGF/EGF without additional Isx-9 addition.

Experiment [10] concerns RFP-labeled human CD133(+) BTSCs. The experiment can be described thus: transplantation of pre-treated RFP-labeled BTSCs into striatum of NOD/scid mice. In kind it is in vivo. As for the experimental part: BTSC transplantation was performed by stereotactic surgery into the left striatum (coordinates from Bregma AP −0 mm, ML +2.5 mm, DV −3.5 mm) with a 33-gauge Hamilton syringe at a flow rate of 30,000 cells/10 minutes.

“Also recorded” adds a separate entry of the source. Bounds are passed on as bounds.

As for `O=C(NC1CC1)c1cc(-c2cccs2)on1` [Isx-9, N-cyclopropyl-5-(thiophen-2-yl)isoxazole-3-carboxamide], in experiment [1], the “increase in neuroD luciferase reporter” value was at least 8 fold. Moreover, the “increase in gluR2 luciferase reporter” value in experiment [2] is given as at least 8 fold. The “activation of MEF2 reporter gene (3XMRE-luc) / MEF2 promoter” value in experiment [3] is “Dose-dependent activation”. Also, the “gliogenesis / glial differentiation” value in experiment [4] was “dominantly blocks gliogenesis”. Also, in [5], the “HDAC5 phosphorylation / cytoplasmic phospho-HDAC5” value is “Increased HDAC5 phosphorylation over time; also recorded: Accumulation of phospho-HDAC5 in the cytoplasm; also recorded: cytoplasmic enrichment of phospho-HDAC5”. Further, the “neuronal differentiation of P19CL6 / P19 embryonal carcinoma cells” value in experiment [6] is reported as “promotes neuronal differentiation”. The “activation of NeuroD-luciferase in BTSCs” value in [7] was “Dose-dependent activation”. In addition, the “activation of NR1-luciferase in BTSCs” value in [8] is reported as “Dose-dependent activation”. Moreover, in experiment [9], the “CD133 expression in BTSCs” value is “downregulated”; the “HDAC-4 and -5 protein in BTSCs” value is on record as “remain relatively unchanged”; the “NRSF expression in BTSCs” value is given as “downregulated”. For the same compound, the “NeuroD expression in BTSCs” value in [9] (2 days) is “Up-regulation of NeuroD”. For the same compound, the “overall levels of neuronal proteins (βTujIII, GluR2) in BTSCs” value in experiment [9] (versus control) is on record as “do not significantly differ”. For the same compound, the “tumor-initiating ability of BTSCs” value in experiment [10] (7-day exposure in vitro (20 μM) before transplantation) is reported as “dramatically reduces tumor-initiating ability”. For the same compound, the “number of RFP-labeled BTSCs in the striatum” value in experiment [10] (after 1 month) is recorded as “significant reduced the number of RFP-labeled BTSCs in the striatum”.
